According to article PMC7006757, “Design, synthesis and in vitro biological evaluation of quinazolinone derivatives as EGFR inhibitors for antitumor treatment” (Journal of Enzyme Inhibition and Medicinal Chemistry, 2020):

Tests used:
EGFR^wt-TK = target: T1, EGFR^wt-TK (Homo sapiens, UniProt P00533); assay: In vitro EGFR^wt-TK assay (ELISA with recombinant EGFR); assay type: biochemical; conditions: mean ± SD of three replicates; for inhibition at 1 µM: read-out: EGFR^wt-TK inhibition rate (%, 1 μM)
T1 construct: purchased Sino Biology Inc
T1 sequence (P00533 25-1210): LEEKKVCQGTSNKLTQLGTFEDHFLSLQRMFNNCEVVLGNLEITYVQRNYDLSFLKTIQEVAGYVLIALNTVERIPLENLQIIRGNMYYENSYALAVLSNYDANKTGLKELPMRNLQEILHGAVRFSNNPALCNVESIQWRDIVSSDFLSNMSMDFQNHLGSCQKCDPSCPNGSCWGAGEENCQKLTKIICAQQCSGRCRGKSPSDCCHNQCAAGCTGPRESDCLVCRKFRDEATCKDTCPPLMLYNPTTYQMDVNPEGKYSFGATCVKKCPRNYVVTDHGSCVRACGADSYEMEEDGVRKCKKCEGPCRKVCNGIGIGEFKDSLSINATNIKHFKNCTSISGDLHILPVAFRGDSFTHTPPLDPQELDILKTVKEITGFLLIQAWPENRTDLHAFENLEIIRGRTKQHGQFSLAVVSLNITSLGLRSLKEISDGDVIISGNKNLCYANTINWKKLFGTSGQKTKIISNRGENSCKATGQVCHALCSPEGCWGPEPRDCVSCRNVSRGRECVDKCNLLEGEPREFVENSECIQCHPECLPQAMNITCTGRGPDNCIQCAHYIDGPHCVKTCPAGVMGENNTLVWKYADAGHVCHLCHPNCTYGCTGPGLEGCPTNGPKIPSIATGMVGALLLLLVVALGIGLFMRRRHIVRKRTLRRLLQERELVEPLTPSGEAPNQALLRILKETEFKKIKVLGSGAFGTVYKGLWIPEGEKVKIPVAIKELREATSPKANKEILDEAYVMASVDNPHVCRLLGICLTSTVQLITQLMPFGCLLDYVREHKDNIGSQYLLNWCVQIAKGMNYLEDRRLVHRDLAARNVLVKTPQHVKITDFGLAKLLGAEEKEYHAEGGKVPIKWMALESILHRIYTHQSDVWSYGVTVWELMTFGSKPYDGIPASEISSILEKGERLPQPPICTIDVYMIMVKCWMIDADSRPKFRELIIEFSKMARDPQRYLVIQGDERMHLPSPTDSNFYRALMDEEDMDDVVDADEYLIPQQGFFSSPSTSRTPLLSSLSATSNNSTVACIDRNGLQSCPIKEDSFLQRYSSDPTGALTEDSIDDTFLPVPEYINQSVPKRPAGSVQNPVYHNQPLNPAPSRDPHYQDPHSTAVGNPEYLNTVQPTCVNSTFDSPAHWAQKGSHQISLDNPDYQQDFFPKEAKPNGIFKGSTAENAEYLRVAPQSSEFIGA
Procedure: Recombinant EGFR was purchased from Sino Biology Inc. Antiphosphotyrosine mouse mAb was purchased from PTM Bio. The effects of compounds on the activity of wild type EGFR tyrosine kinase were determined by enzyme-linked immunosorbent assays (ELISAs) with recombinant EGFR according to reported methods.

A549 cells [1] = assay: MTT assay, A549; conditions: Homo sapiens; for IC50: A549, read-out: IC50 (μM) A549; for inhibition at 10 µM: A549, read-out: Inhibition rate (%, 10 μM) A549
SMMC-7721 cells = assay: MTT assay, SMMC-7721; conditions: Homo sapiens; for IC50: SMMC-7721, read-out: IC50 (μM) SMMC-7721; for inhibition at 10 µM: SMMC-7721, read-out: Inhibition rate (%, 10 μM) SMMC-7721
PC-3 cells = assay: MTT assay, PC-3; conditions: Homo sapiens; for IC50: PC-3, read-out: IC50 (μM) PC-3; for inhibition at 10 µM: PC-3, read-out: Inhibition rate (%, 10 μM) PC-3
A549 cells [2] = assay: Cell apoptosis analysis, Annexin V-FITC/PI flow cytometry; assay type: cell-based, human; conditions: A549, 5, 10, 20 μM, 48 h
A549 cells [3] = assay: Cell cycle analysis, PI flow cytometry; assay type: cell-based, human; conditions: for Percentage of cells in G0/G1 / Percentage of cells in G2/M / Percentage of cells in S: 48 h
EGFR = conditions: Figure 2; read-out: Reported EGFR inhibitors: IC50; cited from earlier work

Row | Compound | inhibition at 1 µM (EGFR^wt-TK) [%] | inhibition at 10 µM (A549 cells [1]) [%] | inhibition at 10 µM (SMMC-7721 cells) [%] | inhibition at 10 µM (PC-3 cells) [%] | melting point [°C] | also measured
1 | O=c1[nH]cc(F)c(=O)[nH]1 [5-Fluorouracil, reference compound] | 63.4 ± 1.69 | 40.4 ± 1.15 | 29.1 ± 2.75 | 29.3 ± 1.24 |  | IC50 (EGFR^wt-TK): 0.14 ± 0.011 µM; IC50 (A549 cells [1]): 1.53 ± 0.72 µM; IC50 (SMMC-7721 cells): 11.4 ± 1.95 µM; IC50 (PC-3 cells): 22.5 ± 0.74 µM
2 | Cn1c(COc2ccc(/C=N/c3ccccc3)cc2)nc2ccccc2c1=O [5a, (E)-3-methyl-2-((4-((phenylimino)methyl)phenoxy)methyl)quinazolin-4(3H)-one] | 1.91 ± 0.91 | 15.4 ± 1.52 | 15.1 ± 5.91 | 7.36 ± 2.38 | 150 to 152 | 
3 | Cc1ccccc1/N=C/c1ccc(OCc2nc3ccccc3c(=O)n2C)cc1 [5b, (E)-3-methyl-2-((4-((o-tolylimino)methyl)phenoxy)methyl)quinazolin-4(3H)-one] | 2.57 ± 1.25 | 14.5 ± 4.09 | 24.3 ± 1.7 | 23.9 ± 8.59 | 162 to 164 | 
4 | Cc1ccc(/N=C/c2ccc(OCc3nc4ccccc4c(=O)n3C)cc2)cc1 [5c, (E)-3-methyl-2-((4-((p-tolylimino)methyl)phenoxy)methyl)quinazolin-4(3H)-one] | 50.8 ± 3.29 | 12.1 ± 2 | 31.8 ± 9.91 | 7.46 ± 0.52 | 182 to 184 | 
5 | COc1ccccc1/N=C/c1ccc(OCc2nc3ccccc3c(=O)n2C)cc1 [5d, (E)-2-((4-(((2-methoxyphenyl)imino)methyl)phenoxy)methyl)-3-methylquinazolin-4(3H)-one] | 38.7 ± 1.83 | 20.8 ± 4.81 | 2.78 ± 4.23 | 38.2 ± 1.4 | 141 to 143 | 
6 | COc1ccc(/N=C/c2ccc(OCc3nc4ccccc4c(=O)n3C)cc2)cc1 [5e, (E)-2-((4-(((4-methoxyphenyl)imino)methyl)phenoxy)methyl)-3-methylquinazolin-4(3H)-one] | 53.6 ± 1.25 | 25.9 ± 7.46 | 20.1 ± 9.11 | 40.2 ± 3.57 | 180 to 182 | 
7 | Cn1c(COc2ccc(/C=N/c3ccccc3F)cc2)nc2ccccc2c1=O [5f, (E)-2-((4-(((2-fluorophenyl)imino)methyl)phenoxy)methyl)-3-methylquinazolin-4 (3H)-one] | 1.31 ± 3.64 | 16.3 ± 1.43 | 2.65 ± 1.81 | 5.46 ± 0.28 | 143 to 145 | 
8 | Cn1c(COc2ccc(/C=N/c3cccc(F)c3)cc2)nc2ccccc2c1=O [5g, (E)-2-((4-(((3-fluorophenyl)imino)methyl)phenoxy)methyl)-3-methylquinazolin-4(3H)-one] | 65 ± 1.51 | 15.6 ± 2.56 | 35.6 ± 1.27 | 4.76 ± 0.51 | 168 to 170 | IC50 (EGFR^wt-TK): 0.047 ± 0.004 µM; IC50 (A549 cells [1]): 19.7 ± 2.34 µM; IC50 (SMMC-7721 cells): 35.9 ± 5.85 µM; IC50 (PC-3 cells): 30.1 ± 1.86 µM
9 | Cn1c(COc2ccc(/C=N/c3ccc(F)cc3)cc2)nc2ccccc2c1=O [5h, (E)-2-((4-(((4-fluorophenyl)imino)methyl)phenoxy)methyl)-3-methylquinazolin-4(3H)-one] | 56.2 ± 2.16 | 14.8 ± 5.06 | 22.9 ± 1.66 | 14.8 ± 2.3 | 200 to 202 | 
10 | Cn1c(COc2ccc(/C=N/c3cccc(Cl)c3)cc2)nc2ccccc2c1=O [5i, (E)-2-((4-(((3-chlorophenyl)imino)methyl)phenoxy)methyl)-3-methylquinazolin-4(3H)-one] | 1.04 ± 0.91 | 23.3 ± 7.52 | 13.1 ± 2.92 | 9.6 ± 2.69 | 179 to 181 | 
11 | Cn1c(COc2ccc(/C=N/c3cccc(Br)c3)cc2)nc2ccccc2c1=O [5j, (E)-2-((4-(((3-bromophenyl)imino)methyl)phenoxy)methyl)-3-methylquinazolin-4(3H)-one] | 53.3 ± 1.58 | 18 ± 6.69 | 18.6 ± 1.51 | 17.9 ± 6.12 | 176 to 178 | 
12 | Cn1c(COc2ccc(/C=N/c3ccc(F)c(F)c3)cc2)nc2ccccc2c1=O [5k, (E)-2-((4-(((3,4-difluorophenyl)imino)methyl)phenoxy)methyl)-3-methylquinazolin-4(3H)-one] | 63.4 ± 1.83 | 27 ± 1.63 | 34.9 ± 4.72 | 57.5 ± 2.77 | 152 to 154 | Induction of apoptosis in A549 cells (A549 cells [2]): induces cellular apoptosis in a concentration-dependent way; IC50 (EGFR^wt-TK): 0.01 ± 0.001 µM; Percentage of cells in G0/G1 (A549 cells [3]; A549, 5 μM): 61.23%; Percentage of cells in G2/M (A549 cells [3]; A549, 5 μM): 25.31%; Percentage of cells in S (A549 cells [3]; A549, 5 μM): 13.46%; Percentage of cells in G0/G1 (A549 cells [3]; A549, 10 μM): 62.42%; Percentage of cells in G2/M (A549 cells [3]; A549, 10 μM): 23.10%; Percentage of cells in S (A549 cells [3]; A549, 10 μM): 14.48%; Cell cycle arrest of A549 cells (A549 cells [3]; A549, 48 h): arrested in the G2/M phase; IC50 (A549 cells [1]): 12.3 ± 4.12 µM; IC50 (SMMC-7721 cells): 15.7 ± 1.64 µM; IC50 (PC-3 cells): 17.1 ± 3.61 µM
13 | Cn1c(COc2ccc(/C=N/c3cc(F)cc(F)c3)cc2)nc2ccccc2c1=O [5l, (E)-2-((4-(((3,5-difluorophenyl)imino)methyl)phenoxy)methyl)-3-methylquinazolin-4(3H)-one] | 61.9 ± 1.51 | 31.2 ± 2.49 | 41 ± 2.63 | 54.3 ± 7.59 | 220 to 221 | IC50 (EGFR^wt-TK): 0.54 ± 0.031 µM; IC50 (A549 cells [1]): 7.22 ± 3.51 µM; IC50 (SMMC-7721 cells): 6.04 ± 0.55 µM; IC50 (PC-3 cells): 13.3 ± 1.12 µM
14 | Cn1c(COc2ccc(/C=N/c3c(F)cccc3F)cc2)nc2ccccc2c1=O [5m, (E)-2-((4-(((2,6-difluorophenyl)imino)methyl)phenoxy)methyl)-3-methylquinazolin-4(3H)-one] | 25.8 ± 1.92 | 15.2 ± 3.61 | 15.1 ± 5.79 | 26.8 ± 0.59 | 181 to 183 | 
15 | Cn1c(COc2ccc(/C=N/c3ccc(F)cc3F)cc2)nc2ccccc2c1=O [5n, (E)-2-((4-(((2,4-difluorophenyl)imino)methyl)phenoxy)methyl)-3-methylquinazolin-4(3H)-one] | 48.4 ± 0.35 | 33.3 ± 3.63 | 11.5 ± 2.87 | 25.8 ± 4.84 | 181 to 183 | 
16 | Cn1c(COc2ccc(/C=N/c3ccc(F)c(Cl)c3)cc2)nc2ccccc2c1=O [5o, (E)-2-((4-(((3-chloro-4-fluorophenyl)imino)methyl)phenoxy)methyl)-3-methyl quinazolin-4(3H)-one] | 16.7 ± 2.99 | 18.7 ± 9.78 | 24.5 ± 1.37 | 13.9 ± 0.92 | 188 to 189 | 
17 | Cn1c(COc2ccc(/C=N/c3ccc(Cl)c(C(F)(F)F)c3)cc2)nc2ccccc2c1=O [5p, (E)-2-((4-(((4-chloro-3-(trifluoromethyl)phenyl)imino)methyl)phenoxy)methyl)-3-methylquinazolin-4(3H)-one] | 4.32 ± 1.92 | 15.6 ± 2.66 | 17.5 ± 2.67 | 22.6 ± 1.28 | 163 to 164 | 
18 | COc1cc2ncnc(Nc3ccc(F)c(Cl)c3)c2cc1OCCCN1CCOCC1 [Gefitinib, reference compound] |  |  |  |  |  | Percentage of cells in G0/G1 (A549 cells [3]; A549, 5 μM): 58.50%; Percentage of cells in S (A549 cells [3]; A549, 5 μM): 12.03%; Percentage of cells in G0/G1 (A549 cells [3]; A549, 10 μM): 62.15%; Percentage of cells in S (A549 cells [3]; A549, 10 μM): 13.56%
19 | N[C@@H](Cc1ccccc1)C(=O)Nn1c(-c2ccc(F)cc2)nc2ccc(F)cc2c1=O [II] |  |  |  |  |  | IC50 (EGFR): 0.164 µM
20 | COc1ccc(-c2nnc(-n3c(-c4ccccc4)nc4cc(Cl)ccc4c3=O)s2)cc1 [I] |  |  |  |  |  | IC50 (EGFR): 0.32 µM
